# Test results from patent publication US10150737B2, “Compounds for controlling arthropods” (priority 2013, dated 2018).
# Experiments:
# [1] = test system: Ctenocephalides felis; assay: Ctenocephalides felis - oral test; assay type: in vivo; details: application rate 100 ppm in citrated cattle blood; after 2 days
# Experimental: (§1) Solvent: dimethyl sulphoxide
# For the purpose of producing an appropriate active ingredient formulation, 10 mg of active ingredient are mixed with 0.5 ml of dimethyl sulphoxide. Dilution with citrated cattle blood gives the desired concentration.
# About 20 unfed adult cat fleas (Ctenocephalides felis) are placed into a chamber which is closed at the top and bottom with gauze. A metal cylinder whose bottom end is closed with parafilm is placed onto the chamber. The cylinder contains the blood/active ingredient preparation, which can be imbibed by the fleas through the parafilm membrane.
# After 2 days, the kill in % is determined. 100% means that all of the fleas have been killed; 0% means that none of the fleas have been killed.
# [2] = test system: Spodoptera frugiperda; assay: Spodoptera frugiperda - spray test; assay type: in vivo; details: caterpillars on maize leaf discs, after 7 days
# Experimental: (§2) Solvent: 78.0 parts by weight of acetone and 1.5 parts by weight of dimethylformamide
# (§3) Emulsifier: alkylaryl polyglycol ether
# (§4) To produce an appropriate active ingredient formulation, 1 part by weight of active ingredient is dissolved using the specified parts by weight of solvent and made up with water containing an emulsifier concentration of 1000 ppm until the desired concentration is attained. To produce further test concentrations, the preparation is diluted with emulsifier-containing water.
# Leaf discs of maize (Zea mays) are sprayed with an active ingredient formulation of the desired concentration and, after drying, populated with caterpillars of the armyworm (Spodoptera frugiperda).
# After 7 days, efficacy in % is determined. 100% means that all the caterpillars have been killed; 0% means that no caterpillars have been killed.
# [3] = test system: Tetranychus urticae; assay: Tetranychus urticae - spray test, OP-resistant; assay type: in vivo; details: bean leaf discs, after 6 days
# Experimental: as §2, §3, §4
# Discs of bean leaves (Phaseolus vulgaris) infested by all stages of the greenhouse red spider mite (Tetranychus urticae) are sprayed with an active ingredient formulation of the desired concentration.
# After 6 days, efficacy in % is determined. 100% means that all the spider mites have been killed; 0% means that none of the spider mites have been killed.
# [4] = test system: Phaedon cochleariae; assay: Phaedon cochleariae - spray test; assay type: in vivo; details: larvae on Chinese cabbage leaf discs, after 7 days
# Experimental: as §2, §3, §4
# Discs of Chinese cabbage leaves (Brassica pekinensis) are sprayed with an active ingredient formulation of the desired concentration and, after drying, populated with larvae of the mustard beetle (Phaedon cochleariae).
# After 7 days, efficacy in % is determined. 100% means that all the beetle larvae have been killed; 0% means that no beetle larvae have been killed.
# [5] = logP determination by HPLC on a reversed-phase column (C18); assay type: physicochemical; details: for logP^a): HPLC-MS method a); for log P: HPLC-MS
# [6] = test system: Lucilia cuprina; assay: Lucilia cuprina test; assay type: in vivo; details: application rate 100 ppm; L1 larvae; after 2 days
# Experimental: as §1
# To produce an appropriate active ingredient formulation, 10 mg of active ingredient are mixed with 0.5 ml of dimethyl sulphoxide, and the concentrate is diluted with water to the desired concentration.
# About 20 L1 larvae of the Australian sheep blowfly (Lucilia cuprina) are transferred into a test vessel containing minced horsemeat and the active ingredient preparation of the desired concentration.
# After 2 days, the kill in % is determined. 100% means that all the larvae have been killed; 0% means that none of the larvae have been killed.
# [7] = test system: Boophilus microplus; assay: Boophilus microplus - injection test; assay type: in vivo; details: application rate 20 μg/animal; injection into engorged adult female ticks; after 7 days
# Experimental: as §1
# To produce an appropriate active ingredient formulation, 10 mg of active ingredient are mixed with 0.5 ml of solvent and the concentrate is diluted with solvent to the desired concentration.
# 1 μl of the active ingredient solution is injected into the abdomen of 5 engorged adult female cattle ticks (Boophilus microplus). The animals are transferred into dishes and kept in a climate-controlled room.
# Efficacy is assessed after 7 days by laying of fertile eggs. Eggs which are not visibly fertile are stored in a climate-controlled cabinet until the larvae hatch after about 42 days. An efficacy of 100% means that none of the ticks has laid any fertile eggs; 0% means that all the eggs are fertile.
# [8] = reversed-phase column (C18), Table I-T3
SMILES,efficacy (kill) [1] [%],efficacy ([2]; application rate 100 g/ha) [%],efficacy ([3]; application rate 100 g/ha) [%],efficacy ([4]; application rate 100 g/ha) [%],logP^a) [5],"logP^a) [5, 8]",efficacy (kill) [6] [%],efficacy (laying of fertile eggs) [7] [%],efficacy ([4]; application rate 500 g/ha) [%],efficacy ([2]; application rate 500 g/ha) [%],efficacy ([3]; application rate 500 g/ha) [%],logP^a) ([5]; reversed-phase column (C18)),"log P [5, 8]",efficacy ([3]; application rate 20 g/ha) [%],"logP ([5]; HPLC, C18 reversed phase, acetonitrile/water with formic acid, EEC Directive 79/831 Annex V.A8)"
CCc1cc(C(F)(F)C(F)(F)F)cc(C)c1-n1cc(-c2ccc(Cl)c(C(=O)NC3CSC3)c2)cn1 [I-T3-83],95,100,100,100,4.6,4.6,100,100,–,–,–,–,–,–,–
Cc1cc(C(F)(C(F)(F)F)C(F)(F)F)cc(C)c1-n1cc(-c2cc(C(=O)NC3CC3)cc(C(F)(F)F)c2)cn1 [I-T3-15],90,–,–,–,4.9,4.9,100,100,100,–,–,–,–,–,–
CCc1cc(C(F)(C(F)(F)F)C(F)(F)F)ccc1-n1cc(-c2cccc(C(=O)NC3CC3)c2F)cn1 [I-T3-75],–,–,–,–,4.2,4.7,80,90,100,100,100,–,–,–,–
CCc1cc(C(F)(C(F)(F)F)C(F)(F)F)ccc1-n1cc(-c2cccc(C(=O)NC3(C#N)CC3)c2F)cn1 [I-T3-74],–,–,90,–,4.1,4.5,90,100,100,100,–,–,–,–,–
O=C(NCC(F)(F)F)c1cc(-c2cnn(-c3ccc(C(F)(C(F)(F)F)C(F)(F)F)cc3OC(F)(F)F)c2)ccc1Cl [I-T3-36],80,–,–,–,5.0,5.0,100,100,100,–,–,–,–,–,–
Cn1ccc(NC(=O)c2cc(-c3cnn(-c4c(Cl)cc(C(F)(F)F)cc4Cl)c3)cnc2Cl)n1 [I-T3-146],100,–,100,–,–,–,90,100,–,–,–,2.8,2.8,–,–
CCc1cc(C(F)(C(F)(F)F)C(F)(F)F)ccc1-n1cc(-c2ccc(Cl)c(C(=O)NCC(F)(F)F)c2)cn1 [I-T3-40],100,100,–,100,4.9,4.9,100,100,–,–,–,–,–,–,–
Cc1cc(C(F)(C(F)(F)F)C(F)(F)F)cc(C)c1-n1cc(-c2cnc(C3CC3)c(C(=O)NC3CC3)c2)cn1 [I-T3-140],100,100,–,100,–,–,100,100,–,–,–,4.2,4.2,–,–
Cc1cc(C(F)(C(F)(F)F)C(F)(F)F)cc(C)c1-n1cc(-c2cc(C(=O)NC3(C#N)CC3)c(F)cc2Cl)cn1 [I-T3-12],100,–,–,–,4.7,4.7,80,100,100,100,–,–,–,–,–
O=C(NCCC(F)(F)F)c1cc(-c2cnn(-c3ccc(C(F)(C(F)(F)F)C(F)(F)F)cc3Cl)c2)ccc1Cl [I-T3-33],100,–,–,–,4.7,4.7,100,100,–,–,–,–,–,–,–
Cc1cc(C(F)(C(F)(F)F)C(F)(F)F)cc(C)c1-n1cc(-c2ccc(Cl)c(C(=O)NCC(=O)NCC(F)(F)F)c2)cn1 [I-T3-6],–,–,–,100,4.1,4.1,100,100,–,–,–,–,–,–,–
N#CC1(NC(=O)c2cc(-c3cnn(-c4c(F)cc(C(F)(F)F)cc4F)c3)ccc2Cl)CC1 [I-T3-49],100,–,–,100,3.2,3.2,100,100,–,–,–,–,–,100,–
N#CC1(NC(=O)c2cc(-c3cnn(-c4ncc(C(F)(F)F)cc4Cl)c3)ccc2Cl)CC1 [I-T3-59],100,–,–,100,3.1,3.1,100,100,–,–,–,–,–,–,–
Cc1cc(C(F)(C(F)(F)F)C(F)(F)F)cc(C)c1-n1cc(-c2cc(C(=O)NC3(C#N)CC3)cc(C(F)(F)F)c2)cn1 [I-T3-18],100,–,–,–,4.7,4.7,100,100,100,100,–,–,–,–,–
O=C(NC1CC1)c1cc(-c2cnn(-c3ncc(C(F)(F)F)cc3Cl)c2)ccc1Cl [I-T3-60],90,–,–,–,3.2,3.2,90,100,–,–,–,–,–,–,–
O=C(NCC(F)(F)F)c1cc(-c2cnn(-c3ccc(C(F)(C(F)(F)F)C(F)(F)F)cc3Cl)c2)ccc1Cl [I-T3-32],100,–,–,–,4.7,4.7,100,100,–,–,–,–,–,–,–
O=C(NC1CSC1)c1cc(-c2cnn(-c3ccc(C(F)(C(F)(F)F)C(F)(F)F)cc3OC(F)(F)F)c2)ccc1Cl [I-T3-37],90,–,–,–,4.9,4.9,100,100,100,–,–,–,–,–,–
O=C(NC1CC1)c1cc(-c2ccn(-c3c(Cl)cc(C(F)(C(F)(F)F)C(F)(F)F)cc3Cl)c2)cnc1Cl [I-T46-4],–,100,100,100,–,–,–,–,–,–,–,–,–,–,4.5
